Measured values published in patent US20160297851A1, “BROAD SPECTRUM […]” (priority 2012, published 2016).
Values after ≈ are worked out from the molar mass of the structure shown. Like-named read-outs stand apart in the source and are kept apart here.

How the values were obtained:
[1] = tested on: wild type S. epidermidis RP62A; assay: microbe, parasite or virus in culture; type: cell-based, Staphylococcus epidermidis; conditions: for MIC: Sensitive strain (SPase without the resistance-conferring Pro)
[2] = tested on: lepB(P29S) S. aureus 8325; assay: microbe, parasite or virus in culture; type: cell-based, Staphylococcus aureus; conditions: Table 3, P3 position derivatives; unit not given
[3] = tested on: lepB(P84L) E. coli MG1655; assay: microbe, parasite or virus in culture; type: cell-based, Escherichia coli; conditions: Table 3, P3 position derivatives; unit not given
[4] = tested on: lepB(P84L) P. aeruginosa PAO1; assay: microbe, parasite or virus in culture; type: cell-based, Pseudomonas aeruginosa
[5] = tested on: wild type P. aeruginosa PAO1; assay: microbe, parasite or virus in culture; type: cell-based, Pseudomonas aeruginosa
[6] = tested on: Brevibacillus brevis ATCC 8246; assay: microbe, parasite or virus in culture; type: cell-based; conditions: ATCC8246
[7] = tested on: Rhodococcus equi ATCC 6939; assay: microbe, parasite or virus in culture; type: cell-based; conditions: Rhodococcus (subgen. Prescottella) equi, ATCC6939
[8] = tested on: Rhodococcus opacus DSM 1069; assay: microbe, parasite or virus in culture; type: cell-based
[9] = tested on: Streptococcus pyogenes M1-5448; assay: microbe, parasite or virus in culture; type: cell-based
[10] = tested on: Streptococcus pneumoniae R800; assay: microbe, parasite or virus in culture; type: cell-based
[11] = tested on: Corynebacterium efficiens DSM 44549; assay: microbe, parasite or virus in culture; type: cell-based
[12] = tested on: Corynebacterium glutamicum DSM 44475; assay: microbe, parasite or virus in culture; type: cell-based; conditions: DSM44475
[13] = tested on: Lactococcus lactis; assay: microbe, parasite or virus in culture; type: cell-based; conditions: several values = different isolates/subspecies
[14] = tested on: Staphylococcus haemolyticus; assay: microbe, parasite or virus in culture; type: cell-based
[15] = tested on: Helicobacter pylori SS1; assay: microbe, parasite or virus in culture; type: cell-based; conditions: amount for a 1000-fold decrease in viable cells
[16] = tested on: Chlamydia trachomatis; assay: microbe, parasite or virus in culture; type: cell-based; conditions: eradication from human HeLa 229 cells, 24 hours
[17] = tested on: Yersinia pestis Kim+6; assay: microbe, parasite or virus in culture; type: cell-based
[18] = tested on: Rhodococcus erythropolis; assay: microbe, parasite or virus in culture; type: cell-based
[19] = tested on: Enterococcus faecalis; assay: microbe, parasite or virus in culture; type: cell-based
[20] = tested on: Bacillus subtilis 168; assay: microbe, parasite or virus in culture; type: cell-based
[21] = tested on: Klebsiella pneumoniae ATCC 43816; assay: microbe, parasite or virus in culture; type: cell-based; conditions: ATCC43816
[22] = tested on: Lactobacillus acidophilus ATCC 4356; assay: microbe, parasite or virus in culture; type: cell-based; conditions: ATCC4356
[23] = tested on: Lactobacillus plantarum ATCC 8014; assay: microbe, parasite or virus in culture; type: cell-based; conditions: Lactiplantibacillus plantarum, ATCC8014
[24] = tested on: Clostridium difficile; assay: microbe, parasite or virus in culture; type: cell-based; conditions: Clostridioides difficile
[25] = tested on: Clostridium bolteae; assay: microbe, parasite or virus in culture; type: cell-based; conditions: Enterocloster bolteae
[26] = tested on: Clostridium perfringens; assay: microbe, parasite or virus in culture; type: cell-based
[27] = tested on: Bacteroides fragilis; assay: microbe, parasite or virus in culture; type: cell-based
[28] = tested on: Staphylococcus aureus; type: cell-based; conditions: several values = heterogeneity within different strains
[29] = tested on: S. aureus COL; assay: microbe, parasite or virus in culture; type: cell-based; conditions: Staphylococcus aureus
[30] = tested on: S. aureus Rosenbach 328; assay: microbe, parasite or virus in culture; type: cell-based; conditions: Staphylococcus aureus; MRSA strain
[31] = tested on: E. coli strains harboring the indicated amino acid at SPase residue 84; assay: microbe, parasite or virus in culture; type: cell-based; conditions: Escherichia coli
[32] = tested on: E. coli and P. aeruginosa serine mutants; assay: MIC after permeabilizing with polymyxin B nonapeptide; type: cell-based
[33] = tested on: human HeLa 229 cells; conditions: none observed up to the highest concentration examined
[34] = molecular target: truncated wild type E. coli SPase (Escherichia coli, UniProt P00803); assay: Equilibrium binding, arylomycin fluorescence; conditions: micelles; average of three independent experiments
[35] = molecular target: P84S variant of truncated E. coli SPase (Escherichia coli, UniProt P00803, P84S); assay: Equilibrium binding, arylomycin fluorescence; conditions: micelles; average of three independent experiments
[36] = molecular target: full-length wild type S. aureus SPase (Pro-variant) (Staphylococcus aureus, UniProt P0A070); assay: Equilibrium binding, arylomycin fluorescence
[37] = molecular target: full-length P29S mutant S. aureus SPase (Ser-variant) (Staphylococcus aureus, UniProt P0A070, P29S); assay: Equilibrium binding, arylomycin fluorescence
[38] = Table 3, P3 position derivatives, unit not given

SMILES: CCCCCCCCCCCCCCCC(=O)N(C)[C@H](CO)C(=O)N[C@H](C)C(=O)NCC(=O)N(C)[C@@H]1C(=O)N[C@@H](C)C(=O)N[C@H](C(=O)O)Cc2ccc(O)c(c2)-c2cc1ccc2O [Arylomycin C16, arylomycin C16]
- MIC [1]: 0.25 µg/mL (≈ 0.284 µM)
- MIC ([1]; listed as arylomycin C16): 0.25 µg/mL (≈ 0.284 µM)
- MIC ([1]; Staphylococcus epidermidis, read-out: MIC): 0.5 µg/mL (≈ 0.567 µM)
- minimal inhibitory concentration (MIC) [1, 38]: 0.25
- minimal inhibitory concentration (MIC) [2]: 4
- minimal inhibitory concentration (MIC) [3]: 2
- MIC ([4]; Pseudomonas aeruginosa, PAO1, Sensitive (genetically sensitized) strain, read-out: MIC): 8 µg/mL
- minimal inhibitory concentration (MIC) [4, 38]: 4
- MIC ([5]; Pseudomonas aeruginosa, PAO1, Resistant strain (wild type), read-out: MIC): > 64 µg/mL
- MIC ([5]; Resistant strain (wild type)): >128 µg/mL
- MIC [6]: > 64 µg/mL
- MIC [7]: 16 µg/mL (≈ 18.2 µM)
- MIC [8]: 2 µg/mL (≈ 2.27 µM)
- MIC ([8]; Rhodococcus opacus, DSM1069, read-out: MIC): 1 µg/mL (≈ 1.13 µM)
- MIC [9]: 16 µg/mL (≈ 18.2 µM)
- MIC ([9]; Streptococcus pyogenes, M15448, read-out: MIC): 8 µg/mL (≈ 9.08 µM)
- MIC ([9]; listed as arylomycin A-C16): 8 µg/mL (≈ 9.08 µM)
- MIC [10]: 16 µg/mL (≈ 18.2 µM)
- MIC ([10]; Streptococcus pneumoniae, R800, read-out: MIC): 8 µg/mL (≈ 9.08 µM)
- MIC ([10]; listed as arylomycin A-C16): 8 µg/mL (≈ 9.08 µM)
- MIC [11]: 16 µg/mL (≈ 18.2 µM)
- MIC [12]: 2 µg/mL (≈ 2.27 µM)
- MIC [13]: 16 µg/mL (≈ 18.2 µM)
- MIC [14]: 2 µg/mL (≈ 2.27 µM)
- MIC ([15]; Helicobacter pylori, SS1, read-out: MIC): 4 µg/mL (≈ 4.54 µM)
- MIC [15]: 4 µg/mL (≈ 4.54 µM)
- MIC [16]: 6 µg/mL (≈ 6.81 µM)
- MIC [17]: 4 µg/mL (≈ 4.54 µM)
- MIC [18]: 16 µg/mL (≈ 18.2 µM)
- MIC [19]: > 64 µg/mL
- MIC [20]: > 128 µg/mL
- MIC [21]: > 128 µg/mL
- MIC [22]: > 128 µg/mL
- MIC [23]: > 128 µg/mL
- MIC [24]: > 16 µg/mL
- MIC [25]: > 16 µg/mL
- MIC [26]: > 16 µg/mL
- MIC [27]: > 16 µg/mL
- MIC [28]: 16 to 32 µg/mL
- MIC [29]: 12 µg/mL (≈ 13.6 µM)
- MIC [30]: 25 µg/mL (≈ 28.4 µM)
- MIC ([31]; 'Phe or His' variant (temperature sensitive)): 2 µg/mL (≈ 2.27 µM)
- MIC ([31]; His variant (temperature sensitive)): 4 µg/mL (≈ 4.54 µM)
- MIC ([31]; Pro at SPase residue 84): > 256 µg/mL
- MIC ([31]; all of the other amino acids at residue 84): ≤ 16 µg/mL
- fold decrease of MIC on permeabilization [32]: ≤ 4 fold
- concentration with adverse effects on the human cells [33]: > 20000 ng/mL
- Kd [34]: 979 ± 69 nM
- Kd [35]: 39 ± 15 nM
- Kd [36]: 1280 ± 278 nM
- Kd [37]: 130 ± 53 nM
